From the supplement of paper PMC11451515

Key:
Experiment in all cases: AUC of viability dose-response curve (% viability x log10 dose units); higher = less sensitive
Conditions in all cases: 48 h
NOMO1 = system: NOMO1
How it was run: (§1)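 Leukemia cells adapted to each medium (500 or 1000 cells/well, 1536-well plates) were exposed to library compounds in DMSO for 48 h at 37°C at 11 threefold doses, 47 μM to 0.79 nM. Luminescence by CellTiter-Glo One was normalised per plate to DMSO and cell-free wells, then fitted with a four-parameter log-logistic curve on log10 dose. Curves above full viability were scaled and quality-control failures removed before area under the curve was integrated by trapezoidal rule.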

P12-Ichikawa = system: P12-Ichikawa
How it was run: as §1

SEM cells = system: SEM cells
How it was run: as §1

[1] = RPMI 5 mM glucose + 10% dialyzed FBS

SMILES	AUC of viability dose-response curve (NOMO1; HPLM + 10% dialyzed FBS)	AUC of viability dose-response curve (NOMO1; RPMI 5 mM glucose + 10% FBS)	AUC of viability dose-response curve (NOMO1; [1])	AUC of viability dose-response curve (P12-Ichikawa; HPLM + 10% dialyzed FBS)	AUC of viability dose-response curve (P12-Ichikawa; RPMI 5 mM glucose + 10% FBS)	AUC of viability dose-response curve (P12-Ichikawa; [1])	AUC of viability dose-response curve (SEM cells; HPLM + 10% dialyzed FBS)	AUC of viability dose-response curve (SEM cells; RPMI 5 mM glucose + 10% FBS)	AUC of viability dose-response curve (SEM cells; [1])
CN[C@@H]1Cc2cccc3[nH]c(=O)n(c23)C1	455	450	458	449	445	456	442	454	452
Cc1csc(NC(=O)c2sc3nc4c(c(C(F)(F)F)c3c2N)CCC4)n1	449	419	441	444	433	394	429	442	420
CC1(C)CNc2cc(NC(=O)c3cccnc3NCc3ccncc3)ccc21	419	468	470	461	446	455			
OC(=O)C(CC/1=C/C(=O)NC2=CC=CC=C12)NC(=O)C3=CC=C(Cl)C=C3 (stereo unspecified)	469	454	469	468	436	465	447	467	470
COc1ccc(C2Sc3ccccc3N(CCN(C)C)C(=O)C2OC(C)=O)cc1 (stereo unspecified)	469	463	460	467	468	445	473	469	474
O=C\1N(N\C=C1[N]2C=CN=N2)C3=NC=NC(=C3)N4CCOCC4	221	210	222	211	225	248			
CC[C@@]1(O)C(=O)OCC/2=C1/C=C3\N(CC4=CC5=CC(=CC=C5N=C34)O)C2=O	251	261	271	180	176	181			
CN1\N=C(N)/C2=C[N]([C@@H]3O[C@H](CO[P](O)(O)=O)[C@@H](O)[C@H]3O)C4=C2C1=NC=N4	341	393	347	353	329	346			
CCC(=O)N[C@H]1CC[C@H](C(=O)N(C)c2ccc(-c3nc4ccccc4o3)cc2)C1	454	449	415	477	458	453			
O=C(Oc1ccc([N+](=O)[O-])cc1)N1CCC(C(O)(c2ccc3c(c2)OCO3)c2ccc3c(c2)OCO3)CC1				439	432	411	396	379	418
COc1ccc(Nc2nccc(NCCO)n2)cc1				395	386	377	331	376	375
Nc1nnc(-c2cccc(Cl)c2Cl)c(N)n1							425	402	418
CN1\C(=C(\O)C2=C(C=CC=C2)[S+]1([O-])=O)C(=O)NC3=CC=CC=N3	422	428	461	397	400	425			
O=C(Cc1ccc(-c2ccc(OCCN3CCOCC3)cc2)cn1)NCc1ccccc1	294	263	277	200	205	222			
CN1CCN2c3ncccc3Cc3ccccc3C2C1 (stereo unspecified)				470	460	463			
